Columns and labels:
Format in all cases: biochemical
[1] = target: T1, complex I in bacterial membranes (Paracoccus denitrificans, UniProt P29916+P29918+P29920); experiment: NADH oxidation in P. denitrificans bacterial membranes; settings: P. denitrificans membranes 20 μg ml−1
T1 construct: Complex I was purified from P. denitrificans strain Pd1222; endogenous in cells; host or cells: P. denitrificans strain Pd1222
Protocol: (§1) All catalytic activity assays were conducted at 32°C in 96-well plates using a Molecular Devices Spectramax 384 plus plate reader. Catalysis was initiated by addition of 200 μM NADH and monitored at 340 and 380 nm (ε340–380 = 4.81 mM^−1 cm^−1). Linear rates were measured for all assays, inhibitors were added from dimethyl sulfoxide stock solutions as required, and inhibitor-insensitive rates (using either 1 μM piericidin A or 1.4 μM IACS-2858) were subtracted from each measured rate. Membrane samples were prepared as described previously ([17], [20], [59], [60]), diluted to 20 μg ml^−1 in 10 mM tris-SO4 (pH 7.5) and 250 mM sucrose, and supplemented with 3 μM horse heart cytochrome c (except for P. denitrificans, for which the activity is unaffected by the addition). Mouse, bovine, and yeast (Y. lipolytica) complex I were purified as described previously ([17], [20], [59]); diluted to 0.5 nM in 20 mM tris-HCl (pH 7.5), 0.15% asolectin, and 0.15% CHAPS; and assayed using either 200 μM dQ or 200 μM ubiquinone-1 (Sigma-Aldrich). Complex I was purified from P. denitrificans strain Pd1222 ([61]) and provided by O. D. Jarman (MRC Mitochondrial Biology Unit, University of Cambridge); it was assayed likewise but in 10 mM MES-HCl (pH 6.5), 25 mM NaCl, and 2 mM CaCl2. […]

[2] = target: T2, complex I in mitochondrial membranes (Bos taurus, UniProt P03887+P17694+P42026); experiment: NADH oxidation in bovine mitochondrial membranes; settings: B. taurus membranes 20 μg ml−1; ± SE
T2 construct: Complex I from bovine heart were prepared; from tissue; host or cells: bovine heart mitochondria
Protocol: as §1

[3] = target: T3, bovine complex I (Bos taurus, UniProt P03887+P17694+P42026); experiment: NADH:decylubiquinone oxidoreduction by purified bovine complex I; settings: purified B. taurus complex I, dQ; ± SE
T3 construct: Complex I from bovine heart were prepared; from tissue; host or cells: bovine heart mitochondria
Protocol: as §1

[4] = target: T3, bovine complex I; experiment: Inhibition kinetics in bovine complex I proteoliposomes with ubiquinone-10 and AOX; settings: versus ubiquinone-10, reciprocal plots and kinetic modelling
Protocol: Complex I from bovine heart were prepared and used to make proteoliposomes as described previously ([17], [23], [58]). Briefly, liposomes were formed from 8 mg of phosphatidylcholine, 1 mg of phosphatidylethanolamine, and 1 mg of cardiolipin (bovine heart extracts from Avanti Polar Lipids), together with varying amounts of ubiquinone-10 (Sigma-Aldrich), in ~800 μl of 10 mM 3-morpholinopropane-1-sulfonic acid (Mops)-KOH (pH 7.5) and 50 mM KCl. Following extrusion through a 100 nm of Nuclepore polycarbonate membrane (Whatman), the liposomes were partially solubilized with 0.5% sodium cholate (Anatrace), and 0.2 mg of complex I was added for reconstitution. […] Complex I concentration and orientation were quantified using the NADH:APAD^+ activity assay as described previously ([17], [23], [58]). Phospholipid phase volumes were calculated as described previously ([17], [23], [58]) to determine the amount of phospholipid present and by assuming that 1 mg of phospholipid occupies ∼1 μl. Ubiquinone-10 contents were quantified by HPLC, by reference to a set of standard samples, using a Nucleosil 100-5C18 column and a Dionex Ultimate 3000 RS electrochemical detector as described previously ([17], [23], [58]). […] All catalytic activity assays were conducted at 32°C in 96-well plates using a Molecular Devices Spectramax 384 plus plate reader. […]

Structure (SMILES): CS(=O)(=O)C1CCN(c2cccc(Cn3cc(-c4nc(-c5ccc(OC(F)(F)F)cc5)no4)ccc3=O)c2)CC1 [IACS-2858, 1-(3-(4-(Methylsulfonyl)piperidin-1-yl)benzyl)-5-(3-(4-(trifluoromethoxy)phenyl)-1,2,4-oxadiazol-5-yl)pyridin-2(1H)-one]
- IC50 [1]: ~61000 nM
- IC50 [2]: 3.4 ± 0.3 nM
- IC50 [3]: 9.3 ± 0.7 nM
- mode of inhibition [4]: competitive

Source: publication PMC8121435, “Cork-in-bottle mechanism of inhibitor binding to mammalian complex I” (Science Advances, 2021)
